Laboratory results published in patent US8470763B2, “Alpha-amino-N-substituted amides, pharmaceutical composition containing them and uses thereof” (Shanghai Institute of Materia Medica Chinese Academy of …, priority 2007, dated 2013).

How the values were obtained:
[1] = system: HO-8910 (Ovarian Cancer); test: SRB assay, HO-8910; assay type: cell-based; conditions: 72 h, read-out: IC50 (μM) (mean ± SD)
Description: (§1) Experimental method: The antineoplasmic activities in vitro of the compounds were determined by SRB assay. The detailed procedure was as follows. The cells in the logarithmic growth phase were inoculated on a 96-well microculture plate with a suitable density (100 μl/well), and allowed to attach overnight, followed by addition of the compound at different concentrations to be treated for 72 h. For each concentration, the test was carried out in triplicate wells, and included control wells containing the aqueous medium of normal saline and a blank well containing all medium without cells for zeroing. After cultured overnight, the cells were treated with the compound at different concentrations for 72 h. After the treatment, the culture medium was removed, and the cells were fixed with 10% (wt/vol) trichloroacetic acid (100 μL/well) at 4° C. for 1 h. The cells were then washed with distilled water for 5 times, and died at room temperature, followed by addition of a SRB solution (4 mg/mL, dissolved in 1% glacial acetic acid) at 100 μL/well. The cells were incubated and stained at room temperature for 15 min, then washed with 1% glacial acetic acid for 5 times to remove the uncombined SRB, and died at room temperature. 100 μL of 10 mM Tris solution was added in each well, and the Optical Density (OD) were measured at a wavelength of 560 nm on a VERSMax ELISA Reader (Molecule Devices). The growth inhibition of the compound against tumor cells was calculated according to the following equation: Growth inhibition (%)=(ODcontrol−ODtreated)/ODcontrol×100%.
(§2) IC50 (the concentration of the sample compound that is required for 50% inhibition of cell growth) was calculated by using the Logit method based on the measurement, and each test was repeated for 3 times to calculate the mean value and standard deviation.

[2] = system: BEL-7402 (Liver Cancer); test: SRB assay, BEL-7402; assay type: cell-based; conditions: Homo sapiens, 72 h, read-out: IC50 (μM) (mean ± SD)
Description: as §1, §2

[3] = system: human breast cancer cells MDA-MB-435 transplanted on nude mice; conditions: mouse, in vivo
Description: (§6) Dosage: among 3 groups, the dosages of L538 were set at 5, 10 and 20 mg/kg as the high, middle and low dosages, respectively, administrating intravenously 3 times a week; while MMC was administrated intravenously at the first day whit a dosage of 5 mg/kg.
(§7) Animals: BALB/CA nude mice, male, 40-45 days old, body weight: 18±1 g, provided by Shanghai Institute of Materia Medica, Chinese Academy of Sciences. […] Animal number in each group: 7 in negative control group, and 4 in administration group.
(§8) The amount of inoculated cells was 5×10^6. After the transplanted tumor was formed by inoculation, it was used after passed for 3 generations in nude mice.
(§9) Experimental procedure: tumor tissue in productive phase was cut into nubs of about 1.5 mm^3. Under sterile conditions, the nubs were inoculated subcutaneously in right axillary fossa of the nude mice. The diameters of the transplanted tumors on nude mice were measured by a vernier caliper. When the tumors grew up to 100-200 mm^3, the animals were divided randomly into groups. Mice in experimental groups were administered intravenously every other day. […] The total administration duration was 3 weeks. For the positive control, MMC, Mice were administered intravenously once at the first day of a week, and the total administration duration was 3 weeks. Mice in control groups were administrated physiologic saline in equivalent amount. The diameter of the tumor and weight of mice were measured twice a week. The equation for calculating the TV (tumor volume) was as follows: TV=½×a×b^2, • wherein, a is length and b is width. RTV (relative tumor volume) was calculated based on the measured results, and the equation thereof was as follows: RTV=Vt/V0 • wherein, V0 is the tumor volume measured when the mice were grouped (i.e. d0), and Vt is the tumor volume at each measurement. The evaluation index for the antitumor activity was the relative tumor proliferation rateT/C (%).
(§10) The calculation equation was as follows: T/C(%)=(TRTV/CRTV)×100, • wherein, TRTV is the RTV of therapeutic Group and CRTV is RTV of negative control group.

[4] = system: human breast cancer cells MDA-MB-435 transplanted on nude mice; test: Antineoplasmic activity in vivo, MDA-MB-435 transplanted tumor on nude mice; conditions: for Body Weight(g) Ultimate / TV (mm^3) d21 / RTV: q3w × 3w; for Body Weight(g) Ultimate: i.v. 4 times then peritoneally 5 times; for RTV: d21
Description: as §6, §7, §8, §9, §10

[5] = system: SMMC-7721 (Liver Cancer); test: SRB assay, SMMC-7721; assay type: cell-based; conditions: Homo sapiens, 72 h, read-out: IC50 (μM) (mean ± SD)
Description: as §1, §2

[6] = system: MDA-MB-435 (Breast Cancer); test: SRB assay, MDA-MB-435; assay type: cell-based; conditions: Homo sapiens, 72 h, read-out: IC50 (μM) (mean ± SD)
Description: as §1, §2

[7] = system: A549 (Lung Cancer); test: SRB assay, A549; assay type: cell-based; conditions: Homo sapiens, 72 h, read-out: IC50 (μM) (mean ± SD)
Description: as §1, §2

[8] = system: HMEC (Others); test: SRB assay, HMEC; assay type: cell-based; conditions: Homo sapiens, 72 h, read-out: IC50 (μM) (mean ± SD)
Description: as §1, §2

[9] = system: 7404 (Liver Cancer); test: SRB assay, 7404; assay type: cell-based; conditions: 72 h, read-out: IC50 (μM) (mean ± SD)
Description: as §1, §2

[10] = system: Zip177 (Liver Cancer); test: SRB assay, Zip177; assay type: cell-based; conditions: 72 h, read-out: IC50 (μM) (mean ± SD)
Description: as §1, §2

[11] = system: colon cancer cells HCT116; test: MTT assay, HCT116 cells; assay type: cell-based; conditions: Homo sapiens, HCT-116, 72 h
Description: (§3) The adhered MDA-MB-4355 cells in logarithmic growth phase, were digested by 0.05% trypsogen, counted and formulated into a cell suspension with a medium. After counted, the suspension was inoculated on a 96-well plate with 3000 cells and 100 μl medium per well. The inoculated 96-well plate was placed overnight in an incubator at 37 with 5% CO2 to allow the cells to adhere to the wall. On the next day, the administration of the drugs started. Before the administration, into some of the control wells, each was added 20 μl of the MTT solution (5 mg/ml) without removing the medium therein. After incubated for 3 h, the absorption at A550/690 was recorded as the initial cell concentration. For the drug wells, each was added into 100 μl of medium containing 2 μl of compound solution. For the control wells which use DMSO as background control, each was also added into 100 μl of medium containing 2 μl of DMSO. In addition, each experiment was carried out with adriamycin as the positive control. Subsequently, the 96-well plate was incubated in an incubator at 37 with 5% CO2 for 72 h. each compound was tested in triplicate wells (6 μl of compound solution was put into a sterilized eppendorf centrifuge tube, then 300 μl of medium was added and mixed well, and the mixture was distributed into 3 wells respectively), and at six concentrations which form a gradient. 3 days (72 h) later, 40 μl of MTT solution (5 mg/ml) was put into each well directly (without sucking off the medium therein), and the plate was incubated in the incubator for 3 h and then taken out. The liquid in each well was sucked off, and then 100 μl of DMSO was put into each well to dissolve the crystal completely with slight shake. The absorbance of the solution in each well was determined at 550/690 nm on an ELISA Reader as the cell density after treated with the compound. The growth inhibition of compound against breast cancer cells MDA-MB-435S was represented by the cell survival rate, and IC50 was determined from the profile of cell survival rate vs compound concentration. The calculating formula was as follows: cell survival rate=[(cells+compound)A550/690/(cells+compound vector DMSO)A550/690]×100%
(§4) MDA-MB-435S: human breast cancer cells; HCT116: colon cancer cells; A549: lung adenocarcinoma cells; Hela: uterine cervix cancer cells.
(§5) The tests were performed in the same manner as that of experimental example 1, except that for Hela cells, after counted, each well was seeded with 1000 cells and 100 μl of medium on a 96-well plate.

[12] = system: Hela uterine cervix cancer cells; test: MTT assay, Hela cells; assay type: cell-based; conditions: Homo sapiens, 72 h, 1000 cells per well
Description: as §3, §4, §5

[13] = system: HCT-116 (Colon Cancer); test: SRB assay, HCT-116; assay type: cell-based; conditions: Homo sapiens, 72 h, read-out: IC50 (μM) (mean ± SD)
Description: as §1, §2

[14] = system: DU145 (Prostatic Cancer); test: SRB assay, DU145; assay type: cell-based; conditions: Homo sapiens, DU-145, 72 h, read-out: IC50 (μM) (mean ± SD)
Description: as §1, §2

Compound: CO[C@@H](C(=O)N[C@@H](C)C(=O)NCCOC(=O)C12CC3CC(CC(C3)C1)C2)[C@H](O)[C@@H](O)[C@H](O)/C=C/C(C)(C)C [Compound L538]
- IC50 [1]: > 20 µM
- IC50 [2]: 0.37 ± 0.27 µM
- dead nude mice [3]: none of the experimental groups had dead nude mice
- growth inhibition of transplanted tumor, conclusion ([4]; 5, 10 and 20 mg/kg, 3 weeks): can significantly depress the growth
- T/C (%) ([4]; L538 5 mg/kg, q3w × 3w (low dosage group), P >0.05): 64.7%
- Body Weight(g) Ultimate ([4]; L538 5 mg/kg, initial 19.3 g): 23.5 g
- TV (mm^3) d21 ([4]; L538 5 mg/kg, d0 131 ± 59): 1144 ± 353 mm^3
- RTV ([4]; L538 5 mg/kg): 9.6 ± 3.5
- T/C (%) ([4]; L538 10 mg/kg, q3w × 3w (middle dosage group), P <0.05): 47.1%
- Body Weight(g) Ultimate ([4]; L538 10 mg/kg, initial 17.7 g): 21.7 g
- TV (mm^3) d21 ([4]; L538 10 mg/kg, d0 133 ± 49): 951 ± 619 mm^3
- RTV ([4]; L538 10 mg/kg): 6.9 ± 3.6
- T/C (%) ([4]; L538 20 mg/kg, q3w × 3w (high dosage group), P <0.05): 36.0%
- Body Weight(g) Ultimate ([4]; L538 20 mg/kg, initial 18.5 g): 19.7 g
- TV (mm^3) d21 ([4]; L538 20 mg/kg, d0 135 ± 37): 735 ± 501 mm^3
- RTV ([4]; L538 20 mg/kg): 5.3 ± 3.1
- tail stimulus on intravenous administration ([4]; after administered intravenously 4 times, every other day): too strong tail stimulus to be administered intravenously
- increase in body weight ([4]; high dosage group): did not have an significant increase in body weight
- growth inhibition of transplanted tumor ([4]; low dosage group): did not be depressed obviously
- IC50 [5]: 0.58 ± 0.04 µM
- IC50 [6]: 0.09 ± 0.01 µM
- IC50 [7]: 0.02 ± 0.004 µM
- IC50 [8]: 0.17 ± 0.06 µM
- IC50 [9]: > 20 µM
- IC50 [10]: 0.37 ± 0.06 µM
- IC50 [11]: 0.098 ± 0.009 µM
- IC50 [12]: 0.091 ± 0.019 µM
- IC50 [13]: 0.24 ± 0.1 µM
- IC50 [14]: 0.14 ± 0.04 µM
